Here are results for two molecules from ChEMBL document CHEMBL1921737, “Utilizing G-quadruplex formation to target 8-oxoguanine in telomeric sequences” (Bioorg Med Chem Lett, 2011).

Active and inactive are the calls of the source. The rule behind the calls is not given here.

Common to all, as to assay type: nucleic-acid assay
The test system of test [1] is Nucleic Acid. In words: Induction of telomeric [32P] G-quadruplex DNA 5'-d(GOxodGTTAGGGTTAGGGTTAGGGTTAGGG) adduct formation at 4 uM for 30 mins in presence of Na2IrCl6 by PAGE method.
Test [2] concerns the target Nucleic Acid. In words: Binding affinity to telomeric G-quadruplex DNA 5'-d(AGGGTTAGGGTTAGGGTTAGGG) by UV titration method.
Test [3] deals with Nucleic Acid. Put plainly: Binding affinity to telomeric G-quadruplex DNA 5'-d(AGGGTTAGGGTTAGGGTTAGGG) assessed as increase in melting temperature at 2 uM by UV thermal denaturation analysis.
Test [4] relates to Nucleic Acid. In words: Binding affinity to telomeric G-quadruplex DNA 5'-d(AGGGTTAGGGTTAGGGTTAGGG) at 1 to 10 uM by CD titration method in presence of 100 mM of KCl.
The test system of test [5] is Nucleic Acid. Put plainly: Binding affinity to telomeric G-quadruplex DNA 5'-d(GOxodGTTAGGGTTAGGGTTAGGGTTAGGG) at 1 to 10 uM by CD titration method in presence of 100 mM of KCl.
Test [6] relates to Nucleic Acid. In words: Binding affinity to telomeric G-quadruplex DNA 5'-d(AOxodGGTTAGGGTTAGGGTTAGGGTGTT) at 1 to 10 uM by CD titration method in presence of 100 mM of KCl.
For test [7], the system named is Nucleic Acid. In words: Binding affinity to telomeric G-quadruplex DNA 5'-d(AGGGTTAGOxodGGTTAGGGTTAGGGTGTT) at 1 to 10 uM by CD titration method in presence of 100 mM of KCl.
Test [8] deals with Nucleic Acid. In words: Binding affinity to telomeric G-quadruplex DNA 5'[32P]-d(AGGGTTAGGGTTAOxodGGGGTTAGGGTGTT) at 1 to 10 uM by CD titration method in presence of 100 mM of KCl.
The test system of test [9] is Nucleic Acid. In words: Binding affinity to telomeric Duplex DNA 5'-d(CGTTCAGAGCCGOxodGTTACGTCCTTCAT) 3'-d(CGAAGTCTGGCCAATGCAGGAAGTA) at 1 to 10 uM by CD titration method in presence of 100 mM of KCl.
In test [10] the test system is Nucleic Acid. Put plainly: Induction of telomeric [32P] G-quadruplex DNA 5'-d(GOxodGTTAGGGTTAGGGTTAGGGTTAGGG) assessed as adducts decomposition half life at 4 uM for 30 mins in presence of Na2IrCl6 by PAGE method.
In test [11] the test system is Nucleic Acid. Put plainly: Induction of telomeric [32P] G-quadruplex DNA 5'-d(AOxodGGTTAGGGTTAGGGTTAGGGTGTT) assessed as adducts decomposition half life at 4 uM for 30 mins in presence of Na2IrCl6 by PAGE method.
The subject of test [12] is Nucleic Acid. Put plainly: Induction of telomeric [32P] G-quadruplex DNA 5'-d(AOxodGGTTAGGGTTAGGGTTAGGGTGTT) adduct formation at 4 uM for 30 mins in presence of Na2IrCl6 by PAGE method.
Test [13] has as its system Nucleic Acid. Put plainly: Induction of telomeric [32P] G-quadruplex DNA 5'-d(AGGGTTAGOxodGGTTAGGGTTAGGGTGTT) adduct formation at 4 uM for 30 mins in presence of Na2IrCl6 by PAGE method.
Test [14] deals with Nucleic Acid. Put plainly: Induction of telomeric [32P] G-quadruplex DNA 5'-d(AGGGTTAGGGTTAOxodGGGGTTAGGGTGTT) adduct formation at 4 uM for 30 mins in presence of Na2IrCl6 by PAGE method.
Test [15] relates to Nucleic Acid. Put plainly: Induction of telomeric [32P] Duplex DNA 5'-d(CGTTCAGAGCCGOxodGTTACGTCCTTCAT) 3'-d(CGAAGTCTGGCCAATGCAGGAAGTA) adduct formation at 4 uM for 30 mins in presence of Na2IrCl6 by PAGE method.

With `NCCCNCCCCNCCCN1C(=O)c2ccc3c4ccc5c6c(ccc(c7ccc(c2c37)C1=O)c64)C(=O)N(CCCNCCCCNCCCN)C5=O`, in the test with Nucleic Acid [1], the result was Active.
Turning to `NCC(CN)CCC(=O)NCCCN1C(=O)c2ccc3c4ccc5c6c(ccc(c7ccc(c2c37)C1=O)c64)C(=O)N(CCCNC(=O)CCC(CN)CN)C5=O`, the Kd (commonly the constant that tells how readily two partners part at equilibrium) on Nucleic Acid [2] stood at 0.86 µM. Besides, in the test with Nucleic Acid [3], the Tm (as a rule, the temperature at the midpoint of the melting transition) was determined as 5.2 °C. Also, the result in the test on Nucleic Acid [4], with Nucleic Acid [5], in the test with Nucleic Acid [6], in the test with Nucleic Acid [8], with Nucleic Acid [9] and in the test on Nucleic Acid [1] was Active. In addition, the result in the test with Nucleic Acid [12] and in the test with Nucleic Acid [15] was Active. Besides, the outcome in the test on Nucleic Acid [7], in the test on Nucleic Acid [13] and in the test on Nucleic Acid [14] was inactive. Besides, the T1/2 in the test on Nucleic Acid [10] and with Nucleic Acid [11] was 36 h each time.
